From the NIST ThermoML archive (doi:10.1021/je060017i)
Numbers after ± are expanded uncertainties.

Settings: 101.33 kPa, Liquid

mass density (283.15 K) | speed of sound (283.15 K) | viscosity (283.15 K) | mass density (298.15 K) | speed of sound (298.15 K) | viscosity (298.15 K) | mass density (313.15 K) | speed of sound (313.15 K) | viscosity (313.15 K) | SMILES
864.17 ± 0.55 kg/m3 | 1276.6 ± 1.6 m/s | 0.5618 ± 0.015 mPa·s | 849.04 ± 0.56 kg/m3 | 1202.2 ± 1.6 m/s | 0.4776 ± 0.014 mPa·s | 833.76 ± 0.57 kg/m3 | 1129.9 ± 1.6 m/s | 0.4088 ± 0.012 mPa·s | CC1CCCO1 (stereo not drawn) [2-methyltetrahydrofuran]
816.92 ± 0.59 kg/m3 | 1292.1 ± 1.7 m/s | 3.869 ± 0.087 mPa·s | 805.73 ± 0.6 kg/m3 | 1242.9 ± 1.6 m/s | 2.561 ± 0.059 mPa·s | 794.38 ± 0.6 kg/m3 | 1186.3 ± 1.6 m/s | 1.757 ± 0.042 mPa·s | CCCCO [butan-1-ol]
